Where two headings read alike, the source gives them in different places.
Key:
[1] = tested on: rodent; settings: rodent; ref [20]-[41], Table 2; cited from earlier work
[2] = tested on: human lymphoblastoid TK6 cells, thymidine kinase gene; assay: TK gene mutation assay (TK6 assay, OECD TG490); settings: for MF: graph data
Description: In principle, this collaborative study conducted the treatment of test substances, the dose finding, and the main test of TK6 assays, according to the OECD Guideline TG490 [17]. […] Briefly, test substances were dissolved in an appropriate solvent (DMSO or ethanol) and then serially diluted to prepare final concentrations. […] The 4 h and 24 h treatments were conducted by shaking and static exposures, respectively. After treatment with test substances, cells were centrifuged (1000 rpm, 5 min), supernatants were removed, and cells were washed with a serum-free medium or Hank’s Balanced Salt Solution. After centrifugation (1000 rpm, 5 min) to remove the supernatant, cells (2 × 10^7 cells) were dispersed in an RPMI medium containing 10% serum, and cell concentration was measured. Treated cells were cultured at 37 °C with 5% CO2 condition and used for TK6 assays. At that time, to calculate the cloning efficiency (CE) (Eq. 1), the cells were cultured in a 96-well microplate at a concentration of about 1.6 cells/well for 2 weeks.
The TK6 assay is conducted between 20 and 10% RS0 as a maximum dose if cytotoxicity is observed. If no precipitate or limiting cytotoxicity was observed, the maximum dose was the lowest concentration among 10 mM, 2 mg/mL, or 2 μL/mL of the test substance. When the main TK6 assay was difficult to conduct under the condition of RS0 values from 20 to 10%, the test was conducted between 20 and 10% relative total growth (RTG), described later, as a maximum dose.
On the third day of culture, CE3 plates for determining plating efficiency and mutant frequency (MF) plates for mutation detection were prepared. CE3 plates were seeded in 96-well microplates at a concentration of about 1.6 cells/well. The MF plates were seeded in 96-well microplates at 40,000 cells/well in the presence of 3 μg/mL of trifluorothymidine (Sigma Aldrich).
Mutant colonies in MF plates were calculated using Eq. 7 using the Poisson distribution. EW was the number of wells without colonies, and TW was the total number of wells. N was the average number of cells per well (N = 40,000 in this study). The data were statistically analyzed by Omori’s method, a modified Dunnett’s procedure for identifying clear negatives, a Simpson–Margolin procedure for detecting downturn data, and a trend test to evaluate the dose dependency [42, 43]. The acceptability criterion for the test was that the MF value of the positive control group of each laboratory was increased with statistical significance compared with that of the concurrent negative control group.

[3] = tested on: L5178Y mouse lymphoma cells; settings: ref [27], [46]-[53], Table 3, cited from earlier work
[4] = tested on: TA1538, TA100, TA98, TA97, TA1535; settings: cited from earlier work
[5] = 24 h treatment, -S9 mix, 173.70 μg/mL
[6] = 24 h treatment, -S9 mix, 277.90 μg/mL
[7] = 24 h treatment, -S9 mix, 444.70 μg/mL
[8] = 24 h treatment, -S9 mix, 711.5 μg/mL
[9] = 24 h treatment, -S9 mix, 1138.4 μg/mL
[10] = 24 h treatment, -S9 mix, 1821.4 μg/mL
[11] = Long-term treatment without metabolic activation
[12] = Short treatment, +S9 mix, dose 173.7 μg/mL
[13] = Short treatment, +S9 mix, dose 277.9 μg/mL
[14] = Short treatment, +S9 mix, dose 445 μg/mL
[15] = Short treatment, +S9 mix, dose 712 μg/mL
[16] = Short treatment, +S9 mix, dose 1138 μg/mL
[17] = Short treatment, +S9 mix, dose 1821 μg/mL
[18] = Short treatment, -S9 mix, dose 173.70 μg/mL
[19] = Short treatment, -S9 mix, dose 277.90 μg/mL
[20] = Short treatment, -S9 mix, dose 444.70 μg/mL
[21] = Short treatment, -S9 mix, dose 711.5 μg/mL
[22] = Short treatment, -S9 mix, dose 1138.4 μg/mL
[23] = Short treatment, -S9 mix, dose 1821.4 μg/mL

For Nc1cc([N+](=O)[O-])ccc1C(=O)O [4-Nitroanthranilic acid], which “Carcinogenicity Studies” value [1] is on record?
Its value is “Neg”.

What about the “TK6 assay result (mutant frequency increase, judgment)” value ([2]; 4h treatment (+S9)) of the same compound?
The value was “no increase in mutation frequency”.

What about the “TK6 assay result (mutant frequency increase, judgment)” value ([2]; 4h treatment (+S9), listed as 4-nitroanthranilic acid) of the same compound?
Its value is “negative”.

And the “TK6 assay result (mutant frequency increase, judgment)” value ([2]; 4h treatment (-S9))?
Its value is “no increase in mutation frequency”.

What about the “TK6 assay result (mutant frequency increase, judgment)” value ([2]; 4h treatment (-S9), listed as 4-nitroanthranilic acid) of the same compound?
Its value is “negative”.

And the “TK mutation assay, Long term” value ([2]; 24 h, without S9)?
The value was “Pos”.

What about the “TK6 assay result (mutant frequency increase, judgment)” value ([2]; 24h treatment (-S9)) of the same compound?
Its value is “statistically significant increase in mutation frequency”.

What about the “TK6 assay result (mutant frequency increase, judgment)” value ([2]; 24h treatment (-S9), listed as 4-nitroanthranilic acid) of the same compound?
Its value is “positive”.

And the “%SG” value [2, 5]?
The value was 68.7%.

What about the “Mut. freq. (×10-6) N-MF” value [2, 5] of the same compound?
The value was 1.8 ×10-6.

What about the “Mut. freq. (×10-6) S-MF” value [2, 5] of the same compound?
Its value is 3.9 ×10-6.

And the “Mut. freq. (×10-6) T-MF” value [2, 5]?
Its value is 5.6 ×10-6.

And the “%SG” value [2, 6]?
Its value is 61.0%.

And the “Mut. freq. (×10-6) N-MF” value [2, 6]?
The value was 3.1 ×10-6.

What about the “Mut. freq. (×10-6) S-MF” value [2, 6] of the same compound?
Its value is 4.8 ×10-6.

And the “Mut. freq. (×10-6) T-MF” value [2, 6]?
The value was 7.9 ×10-6.

And the “%SG” value [2, 7]?
Its value is 63.1%.

And the “Mut. freq. (×10-6) N-MF” value [2, 7]?
Its value is 2.6 ×10-6.

And the “Mut. freq. (×10-6) S-MF” value [2, 7]?
The value was 4.4 ×10-6.

And the “Mut. freq. (×10-6) T-MF” value [2, 7]?
The value was 7.0 ×10-6.

What about the “%SG” value [2, 8] of the same compound?
The value was 72.4%.

What about the “Mut. freq. (×10-6) N-MF” value [2, 8] of the same compound?
The value was 3.0 ×10-6.

What about the “Mut. freq. (×10-6) S-MF” value [2, 8] of the same compound?
Its value is 7.8 ×10-6.

And the “Mut. freq. (×10-6) T-MF” value [2, 8]?
Its value is 10.7 ×10-6.

What about the “%SG” value [2, 9] of the same compound?
The value was 57.1%.

What about the “Mut. freq. (×10-6) N-MF” value [2, 9] of the same compound?
Its value is 4.1 ×10-6.

What about the “Mut. freq. (×10-6) S-MF” value [2, 9] of the same compound?
The value was 5.5 ×10-6.

What about the “Mut. freq. (×10-6) T-MF” value [2, 9] of the same compound?
The value was 9.7 ×10-6.

What about the “%SG” value [2, 10] of the same compound?
The value was 68.5%.

And the “Mut. freq. (×10-6) N-MF” value [2, 10]?
The value was 4.4 ×10-6.

And the “Mut. freq. (×10-6) S-MF” value [2, 10]?
The value was 9.5 ×10-6.

What about the “Mut. freq. (×10-6) T-MF” value [2, 10] of the same compound?
Its value is 13.9 ×10-6.

What about the “Dunnett type test, test statistic” value [2, 11] of the same compound?
The value was 2.990.

And the “Trend test, test statistic” value [2, 11]?
The value was 4.178.

What about the “%SG” value [2, 12] of the same compound?
Its value is 38.9%.

What about the “Mut. freq. (×10-6) N-MF” value [2, 12] of the same compound?
Its value is 6.7 ×10-6.

And the “Mut. freq. (×10-6) S-MF” value [2, 12]?
Its value is 4.3 ×10-6.

What about the “Mut. freq. (×10-6) T-MF” value [2, 12] of the same compound?
The value was 10.9 ×10-6.

And the “%SG” value [2, 13]?
Its value is 40.2%.

And the “Mut. freq. (×10-6) N-MF” value [2, 13]?
Its value is 6.1 ×10-6.

What about the “Mut. freq. (×10-6) S-MF” value [2, 13] of the same compound?
Its value is 4.1 ×10-6.

And the “Mut. freq. (×10-6) T-MF” value [2, 13]?
The value was 10.3 ×10-6.

And the “%SG” value [2, 14]?
The value was 44.7%.

What about the “Mut. freq. (×10-6) N-MF” value [2, 14] of the same compound?
The value was 4.6 ×10-6.

What about the “Mut. freq. (×10-6) S-MF” value [2, 14] of the same compound?
The value was 3.7 ×10-6.

And the “Mut. freq. (×10-6) T-MF” value [2, 14]?
Its value is 8.4 ×10-6.

What about the “%SG” value [2, 15] of the same compound?
Its value is 49.2%.

What about the “Mut. freq. (×10-6) N-MF” value [2, 15] of the same compound?
Its value is 5.5 ×10-6.

And the “Mut. freq. (×10-6) S-MF” value [2, 15]?
The value was 5.3 ×10-6.

And the “Mut. freq. (×10-6) T-MF” value [2, 15]?
Its value is 10.7 ×10-6.

And the “%SG” value [2, 16]?
Its value is 37.9%.

And the “Mut. freq. (×10-6) N-MF” value [2, 16]?
The value was 6.4 ×10-6.

And the “Mut. freq. (×10-6) S-MF” value [2, 16]?
The value was 3.9 ×10-6.

What about the “Mut. freq. (×10-6) T-MF” value [2, 16] of the same compound?
The value was 10.3 ×10-6.

And the “%SG” value [2, 17]?
Its value is 43.4%.

What about the “Mut. freq. (×10-6) N-MF” value [2, 17] of the same compound?
Its value is 6.4 ×10-6.

And the “Mut. freq. (×10-6) S-MF” value [2, 17]?
The value was 4.9 ×10-6.

And the “Mut. freq. (×10-6) T-MF” value [2, 17]?
The value was 11.3 ×10-6.

And the “%SG” value [2, 18]?
The value was 60.5%.

What about the “Mut. freq. (×10-6) N-MF” value [2, 18] of the same compound?
Its value is 3.6 ×10-6.

And the “Mut. freq. (×10-6) S-MF” value [2, 18]?
The value was 5.5 ×10-6.

And the “Mut. freq. (×10-6) T-MF” value [2, 18]?
Its value is 9.0 ×10-6.

What about the “%SG” value [2, 19] of the same compound?
Its value is 56.6%.

And the “Mut. freq. (×10-6) N-MF” value [2, 19]?
The value was 3.8 ×10-6.

What about the “Mut. freq. (×10-6) S-MF” value [2, 19] of the same compound?
Its value is 4.9 ×10-6.

And the “Mut. freq. (×10-6) T-MF” value [2, 19]?
The value was 8.7 ×10-6.

And the “%SG” value [2, 20]?
Its value is 46.7%.

What about the “Mut. freq. (×10-6) N-MF” value [2, 20] of the same compound?
Its value is 4.2 ×10-6.

What about the “Mut. freq. (×10-6) S-MF” value [2, 20] of the same compound?
Its value is 3.7 ×10-6.

And the “Mut. freq. (×10-6) T-MF” value [2, 20]?
Its value is 7.9 ×10-6.

What about the “%SG” value [2, 21] of the same compound?
Its value is 48.9%.

What about the “Mut. freq. (×10-6) N-MF” value [2, 21] of the same compound?
Its value is 4.3 ×10-6.

And the “Mut. freq. (×10-6) S-MF” value [2, 21]?
Its value is 4.2 ×10-6.

And the “Mut. freq. (×10-6) T-MF” value [2, 21]?
The value was 8.5 ×10-6.

What about the “%SG” value [2, 22] of the same compound?
Its value is 52.7%.

And the “Mut. freq. (×10-6) N-MF” value [2, 22]?
Its value is 3.7 ×10-6.

And the “Mut. freq. (×10-6) S-MF” value [2, 22]?
Its value is 4.1 ×10-6.

And the “Mut. freq. (×10-6) T-MF” value [2, 22]?
The value was 7.8 ×10-6.

What about the “%SG” value [2, 23] of the same compound?
Its value is 65.9%.

And the “Mut. freq. (×10-6) N-MF” value [2, 23]?
The value was 3.0 ×10-6.

And the “Mut. freq. (×10-6) S-MF” value [2, 23]?
Its value is 5.9 ×10-6.

And the “Mut. freq. (×10-6) T-MF” value [2, 23]?
Its value is 9.0 ×10-6.

And the “Dunnett type test, test statistic” value ([2]; Short-term treatment with metabolic activation)?
The value was 0.732.

And the “Dunnett type test, test statistic” value ([2]; Short-term treatment without metabolic activation)?
Its value is 0.791.

And the MF ([2]; 24 h, -S9 mix, 173.70 μg/mL)?
Its MF is 5.6.

And the MF ([2]; 24 h, -S9 mix, 277.90 μg/mL)?
The MF was 7.9.

And the MF ([2]; 24 h, -S9 mix, 444.70 μg/mL)?
The MF was 7.0.

And the MF ([2]; 24 h, -S9 mix, 711.5 μg/mL)?
Its MF is 10.7.

What about the MF ([2]; 24 h, -S9 mix, 1138.4 μg/mL) of the same compound?
Its MF is 9.7.

And the MF ([2]; 24 h, -S9 mix, 1821.4 μg/mL)?
Its MF is 13.9.

And the MF [2, 12]?
The MF was 10.9.

What about the MF [2, 13] of the same compound?
Its MF is 10.3.

And the MF ([2]; Short treatment, +S9 mix, dose 444.7 μg/mL)?
Its MF is 8.4.

What about the MF ([2]; Short treatment, +S9 mix, dose 711.5 μg/mL) of the same compound?
The MF was 10.7.

And the MF ([2]; Short treatment, +S9 mix, dose 1138.4 μg/mL)?
The MF was 10.3.

And the MF ([2]; Short treatment, +S9 mix, dose 1821.4 μg/mL)?
The MF was 11.3.

What about the MF [2, 18] of the same compound?
Its MF is 9.0.

And the MF [2, 19]?
Its MF is 8.7.

And the MF [2, 20]?
The MF was 7.9.

What about the MF [2, 21] of the same compound?
The MF was 8.5.

And the MF [2, 22]?
The MF was 7.8.

And the MF [2, 23]?
Its MF is 9.0.

What about the “TK mutation assay, With S9” value ([2]; short-term 4 h, with rat liver S9) of the same compound?
The value was “Neg”.

And the “TK mutation assay, Without S9” value ([2]; short-term 4 h, without S9)?
The value was “Neg”.

And the “MLA (TK gene locus), With S9” value ([3]; with S9)?
The value was “Pos”.

And the “MLA (TK gene locus), Without S9” value ([3]; without S9)?
Its value is “Equivocal^d”.

And the “The Highest Specific Activity and the Strain” value ([4]; TA100 with S9, ref Table 2)?
The value was 2830 revertants/mg.

What about the “The Highest Specific Activity and the Strain” value ([4]; TA1535 with S9, ref [33]) of the same compound?
Its value is 3600 revertants/mg.

And the “Bacterial reverse mutation assay, With S9” value ([4]; with S9, ref [18]-[40], Table 2)?
Its value is “Pos”.

What about the “Bacterial reverse mutation assay, Without S9” value ([4]; without S9, ref [18]-[40], Table 2) of the same compound?
Its value is “Pos”.
